# Experimental data published in patent publication US20090214669A1, “Combination anticancer therapy and pharmaceutical compositions therefore” (priority 2004, published 2009).
# “Also recorded” adds a separate entry of the source. Read-outs that look alike come from different tables or passages of the source.
# Assays:
# [1] = tested on: PROb cells; test: PROb i.p. rat colon cancer model, 5-FU combined with OM-174: carcinomatosis classes, ascites, survival; format: in vivo; settings: day 61; for Number of rats in carcinomatosis class 0: Class 0: no visible nodule, 5-FU 30 mg/kg i.p. days 7 and 14, OM-174 1 mg/kg i.v. from day 21, 10 injections; for Number of rats in carcinomatosis class 1: Class 1: some countable nodules with a diameter from 0.1 to 0.3 cm; for Number of rats in carcinomatosis class 2: Class 2: many uncountable nodules with a diameter from 0.1 to 0.3 cm; for Number of rats in carcinomatosis class 3: Class 3: some nodules with a diameter of 1 cm invade the peritoneal cavity; for Number of rats in carcinomatosis class 4: Class 4: the cavity is completely invaded by tumor masses of several cm; for Ascites: measured by double weights of the rats
# Method: On day 0 (D0), 106 PROb cells were injected i.p. to each rat. 5-FU was administered i.p. at the dose of 30 mg/kg on days 7 and 14. OM-174 was injected at the dose of 1 mg/kg i.v. from day 21 three times a week for a total of 10 injections.
# All rats (controls and treated) were sacrificed by CO2 on day 61. The efficacy of the treatment was determined by read-outs such as survival (FIG. 5) and measure of the classes of cancer given depending on the number and the size of the nodules, and also by ascites measurements. Carcinomatoses were evaluated blindly. As it is impossible to measure the volume of a carcinomatosis, they were classified according to the number and diameter of the nodules: • Class 0: no visible nodule • Class 1: some countable nodules with a diameter from 0.1 to 0.3 cm • Class 2: many uncountable nodules with a diameter from 0.1 to 0.3 cm • Class 3: some nodules with a diameter of 1 cm invade the peritoneal cavity • Class 4: the cavity is completely invaded by tumor masses of several cm.
# The ascite volume was measured by double weights of the rats.
# [2] = tested on: B16 melanoma cells; test: Cytotoxic (CTL) activity of spleen cells against autologous tumour cells, 51Cr-release assay; settings: for CTL % cytotoxicity: E/T ratio 25:1
# Text: (§2) Mice were sacrificed by cervical dislocation on day 14 after tumour inoculation.
# (§3) In vitro-passaged YAC-1 cells (a Moloney-virus induced mouse T cells lymphoma of A/SN origin), and in vivo-passaged B16 melanoma cells, were used as target cells in a chromium-release assay. B16 melanoma cells were obtained from tumour-bearing mice, seeded in cell-culture flasks (Falcon, Becton Dickinson and Co., Plymouth, England) and used within the first week of culture in CM. B16 and YAC-1 cell lines were obtained from the laboratory collection, and were originally obtained from the American Tissue Culture Collection (ATCC).
# (§4) The cytotoxic activity of the effector cells collected from individual mice was measured by a standard 4-hour ^51Cr-release assay. Briefly, target cells were harvested from the cultures, washed twice, resuspended at 5×10^6 cells in 0.9 ml of CM and labelled with 100 μCi (^51Cr) sodium chromate (New England Nuclear, Boston, Mass.) for 1 hour at 37° C. in a 5% CO2 incubator. […] The effector cells suspension was added to quadruplicate wells to give three E/T ratios (i.e. 100:1, 50:1, 25:1) in a final volume of 200 μl per well. The plates were then incubated for 4 hours at 37° C. in a 5% CO2 incubator, 100 μl of supernatants were collected from each well, and the radioactivity was measured using a gamma counter. Total mean cytotoxicity±S.E.M. were calculated from quadruplicate cpm values from individual spleens.
# It has been tested from spleen cells from normal and tumour-bearing mice for specific cytotoxic activity against autologous tumour cells using in-vivo passaged B16 melanoma cells as target.
# [3] = tested on: PROb subcutaneous colon tumors; format: in vivo, BDIX rats
# [4] = tested on: B16 melanoma; test: B16 melanoma model: tumour growth and survival time; format: in vivo, C57BL/6 mice; settings: CY 200 mg/Kg i.p. day 7; OM-174 1 mg/kg i.p. days 8, 13, 18, 23, 28; vs untreated controls
# Method: Four to six weeks-old male C57BL/6 mice were purchased from Charles River (Calco, Corno, Italy). B 16 melanoma tumour cells were serially passaged subcutaneously (s.c.) in syngenic mice. On day 0, mice were injected s.c. in the right flank with 2×10^5 B16 melanoma cells. Tumour growth was measured daily in each mouse, using calipers, and mean tumour diameter per day was calculated. At day 7 after tumour injection, all mice with s.c. tumours of about 2-3 mm diameter were divided into different experimental groups, i.e. phosphate buffered saline (PBS)-injected control 3, CY, OM-174 or CY with OM-174.
# Cyclophosphamide (Sigma, St. Louis, Mo.) was dissolved at 20 mg/ml in PBS immediately before use, and 0.2 ml per mouse were injected intraperitoneally. Each treated animal received a single dose of 200 mg/Kg CY on day 7.
# Kaplan-Meier method was used to estimate the survivor functions and Log-rank test was performed for testing the homogeneity of survival functions across the four groups (control, CY, OM-174, CY+OM-174).
# Tumor growth was analyzed by T-test for unpaired data.
# [5] = tested on: YAC-1 cells; test: NK activity of spleen cells, 4-hour 51Cr-release assay; settings: for NK activity (in words): B16 melanoma-injected mice; for NK % cytotoxicity: E/T ratio 25:1, mean ± S.E.
# Text: as §2, §3, §4
# It has been therefore measured the cytotoxic activity of splenocytes against NK-sensitive (YAC-1) tumour cells.
# [6] = tested on: spleen cells expressing CD4, CD8, and NK1.1; test: Flow cytometric analysis of spleen cell subsets; format: in vivo, C57BL/6 mice; settings: for NK (%): NK1.1 positive cells vs total spleen cells; for NK (%) / CD4^+ (%) / CD8^+ (%): mean ± S.E.M; for CD4^+ (%) / CD8^+ (%): positive cells vs total spleen cells
# Method: Splenocytes from individual mice were analysed by flow cytometry. The following monoclonal antibodies were used for double fluorescence analysis of spleen cell subsets: fluorescein (FITC)-conjugated anti-mouse NK1.1 PE (PharMingen, San Diego, Calif.), PE-conjugated anti-mouse CD4 (PharMingen), FITC-conjugated anti-mouse CD8 (PharMingen). Approximately 1×10^6 spleen cells were resuspended in […] of CM and staining was performed at 4° C. for 30 minutes. Cells were then washed twice in PBS containing 0.02% sodium azide and flow cytometric analysis was performed using a FACscan flow cytometer (Becton Dickinson).
# Fluorescence data were collected using a 488 nm excitation wavelength from a 15 mW air-cooled argon-ion laser. […] A minimum of 5,000 events were collected on each sample and acquired in list mode by a Hewlett Packard 9000 computer. To exclude dead cells, debris, non lymphoid cells, and cell aggregates, data collection was gated on live spleen lymphocytes by forward and side angle scatter. Data are represented as the percentage of positive cells over the total number of cells counted.
# [7] = tested on: PROb cells; test: BDIX/PROb peritoneal carcinomatosis, cisplatin combined with OM-174, survival; format: in vivo, BDIX rats; settings: cisplatin 3 mg/kg i.v. day 21; OM-174 1 mg/kg i.v., 5 injections every 5th day from day 28 or 35
# Method: Colon cancer PROb cells were originally obtained from a tumor of a BDIX rat induced by 1,2-dimethylhydrazine.
# The BDIX strain of rats was established in 1937 by H. Druckrey. Nowadays these rats come from Iffa-Credo (L'Asbresle, France).
# BDIX rats, 4 months±1 month at the beginning of the experiment, 7 animals/group, received i.p. cultured syngenic PROb cells (i.p) on day 0. Cisplatin (3 mg/kg) was injected i.v. on day 21, and OM-174 treatment (1 mg/kg, 5 injections i.v. in the penile vein every 5th day) started either on days 28 or 35. Survival was followed until day 72 in the example presented here.
# In this example, cisplatin (3 mg/kg i.v) is given on day 21. A further immunostimulating treatment with OM-174 is started only on day 28 or 35 (1 mg/kg, 5 injections i.v. every 5th day).
# [8] = tested on: EMT-6 cells; test: Direct radiosensitisation of EMT-6 cells, 8-day colony formation assay; format: cell-based, mouse
# Method: (§1) Murine mammary adenocarcinoma EMT-6 cells were cultured in RPMI medium+10% bovine calf serum in plastic flasks. EMT-6 monolayer cultures grown to early confluence were exposed to OM-174 for 16 hours in both conditions (21% and 1% oxygen). After treatment with OM-174, nitrite determination using the classical Griess method was performed. Values were normalized for 200'000 cells per well.
# Cells were then collected by trypsinization and the radioresponse was estimated as described previously (Van der Berge et al., 2001) Briefly, micropellets (0.5×10^6 cells) were produced in conical tubes by centrifugation at 300 g for 5 min. Metabolic oxygen depletion in micropellets was induced by incubation at 37° C. for 3 minutes prior to radiation. Micropellets were irradiated with a linear accelerator at a rate of 2 Gy per min and the survival fraction (SF) after 5, 10, 15, and 20 Gy was measured by a 8-day colony formation assay.
# [9] = tested on: EMT-6 cells; test: Indirect radiosensitisation via OM-174-induced conditioned medium; format: cell-based, mouse; settings: 3 μg/ml versus 0.3 μg/ml; conditioned medium from Whistar rats
# [10] = tested on: ProB cells; settings: cited from earlier work
# [11] = Pharmacokinetic data of OM-174 in man; settings: human, in vivo, median and range; for Vd: read-out: Vss
# [12] = tested on: EMT-6 cells; test: NO production (nitrite, Griess method) by EMT-6 cells exposed to OM-174; format: cell-based, mouse; settings: 16 hours
# Method: as §1
# [13] = Single dose i.v. infusion study of OM-174 in cancer patients (tolerability, cytokines); format: in vivo
# Method: Doses higher than 1 mg OM-174/m^2 by i.v. infusion were reached without unacceptable toxicity according to non-haematological grade III and haematological grade IV NCI Common Toxicity Criteria.
# Secretion occurred in all steps, and appeared more “patient”- than “dose”-dependent.
# The results of this single dose study led to the selection of three doses (0.6, 0.8, and 1.0 mg OM-174/m^2) for repeated i.v. injections (5 to 15 injections), used in a phase Ib study.
# [14] = B16 tumour-bearing mice, day 14, CY 200 mg/Kg i.p. day 7, OM-174 1 mg/kg i.p. days 8 and 13, mean ± S.E.
# [15] = B16 tumour-bearing mice, day 14
compound,measurement,setting,value
"O=c1[nH]cc(F)c(=O)[nH]1 [5-FU, 5-Fluorouracil, reference compound]",Number of rats in carcinomatosis class 0,[1],2
same,Number of rats in carcinomatosis class 1,[1],0
same,Number of rats in carcinomatosis class 2,[1],0
same,Number of rats in carcinomatosis class 3,[1],0
same,Number of rats in carcinomatosis class 4,[1],8
same,Carcinomatosis classes versus Control group (Mann-Whitney test),[1],No significant difference
same,Ascites,[1],44 mL
"O=P1(N(CCCl)CCCl)NCCCO1 (stereo not shown) [CY, cyclophosphamide, reference compound]",CTL % cytotoxicity,[2]; [14],2.63 ± 0.2%
same,Cytotoxic activity against autologous tumour cells (in words),[2]; tumour-bearing mice,not to be increased
same,"Antitumoral effect of single treatment on large, established PROb tumors (in words, FIG. 3)","[3]; rat, in vivo",transient regression; also recorded: unable to cure animals
same,Number of cured animals/total number of animals,"[3]; rat, in vivo",0/6
same,"B16 tumour growth (in words, FIG. 1)",[4],inhibited slightly but significantly
same,"Survival time (MST) of mice (in words, FIG. 2)",[4],increased slightly but significantly
same,NK activity (in words),[5]; day 14,decreased NK activity
same,NK % cytotoxicity,"[5]; B16 tumour-bearing mice, day 14, CY 200 mg/Kg i.p. day 7, OM-174 1 mg/kg i.p. days 8 and 13",2.3 ± 0.4%
same,NK (%),[6]; [15],4 ± 0.5%
same,CD4^+ (%),[6]; [15],21.7 ± 1.8%
same,CD8^+ (%),[6]; [15],6.4 ± 1.4%
"N.N.[Cl][Pt][Cl] [Cisplatin, cisplatin, reference compound]","Antitumour activity / survival (in words, FIG. 4)",[7],only partial efficacy
CCCCCCCCCCCC(=O)O[C@H](CCCCCCCCCCC)CC(=O)N[C@@H]1C(O)[C@H](OP(=O)(O)O)C(CO)O[C@H]1OCC1O[C@H](OP(=O)(O)O)C(NC(=O)C[C@H](O)CCCCCCCCCCC)C(O)[C@@H]1O (stereo partly shown) [OM-174],"Direct radiosensibilizing effect (in words, FIG. 7)",[8]; 21% versus 1% oxygen,directly radiosensibilizing agent for cancer cells only in hypoxic conditions
same,Lowering of the radiation dose necessary to kill 90% of the cells versus absence of OM-174,"[8]; hypoxic conditions, at either 3 or 30 mg/ml (FIG. 7)",1.67
same,"Indirect radiosensibilizing effect via conditioned medium (in words, FIG. 8)",[9],clearly more radiosensibilizing
same,Therapeutic activity per se (in words),"[10]; treatment started up to 14 days after tumour induction, WO 95/14026",strong therapeutic activity
same,Complete remissions,"[10]; treatment starts 14 days after the injection of the cancer cells, peritoneal carcinomatoses",90%
same,Number of rats in carcinomatosis class 0,[1],2
same,Number of rats in carcinomatosis class 1,[1],3
same,Number of rats in carcinomatosis class 2,[1],2
same,Number of rats in carcinomatosis class 3,[1],2
same,Number of rats in carcinomatosis class 4,[1],1
same,Carcinomatosis classes versus Control group (Mann-Whitney test),[1],significant difference
same,Ascites,[1],1 mL
same,CTL % cytotoxicity,[2]; [14],5.6 ± 0.9%
same,CTL % cytotoxicity,[2]; normal mice,<1%
same,Cytotoxic activity against autologous tumour cells (in words),[2]; tumour-bearing mice,marked stimulation of CTL activity
same,Increase of CTL activity with respect to tumour controls,[2]; tumour-bearing mice,two-fold increase
same,Number of cured animals/total number of animals,"[3]; CY 25 mg/kg i.p. day 36, i.t. immunostimulant from day 43 (OM-174 200 μg x12, CpG 100 μg x12, BCG days 43 and 50)",1/6
same,"Antitumoral effect of single treatment on large, established PROb tumors (in words, FIG. 3)","[3]; agent alone, comparatively to untreated animals",no antitumoral effect
same,Effect of i.t. immunostimulant on the antitumor activity of CY (in words),[3]; i.p. CY day 36 combined with i.t. immunostimulant from day 43,strongly enhanced
same,Complete and lasting tumor regression (animals),[3]; i.p. CY day 36 followed by i.t. OM-174 from day 43,4/6
same,"Antitumour activity / survival (in words, FIG. 4)",[7],anticancer effect is lost
same,"B16 tumour growth (in words, FIG. 1)",[4],partially inhibits tumour progression; also recorded: inhibited slightly but significantly
same,"Survival time (MST) of mice (in words, FIG. 2)",[4],slightly extends the survival time; also recorded: increased slightly but significantly
same,clearance,"[11]; intravenous, Cancer patients",1.7 mL/min
same,half-life,"[11]; intravenous, Cancer patients",1200 min
same,Vd,"[11]; intravenous, Cancer patients",2.9 L
same,clearance,[11]; Healthy volunteers,2.82 mL/min
same,half-life,[11]; Healthy volunteers,1380 min
same,Vd,[11]; Healthy volunteers,5.1 L
same,"NO production (in words, FIG. 6)",[12]; hypoxic (1% oxygen) condition,increased production of NO
same,"NO production (in words, FIG. 6)",[12]; normal oxygen levels (21% oxygen),low amounts of NO
same,Tolerability,[13],well tolerated
same,Doses reached without unacceptable toxicity,"[13]; i.v. infusion, non-haematological grade III and haematological grade IV NCI Common Toxicity Criteria",higher than 1 mg OM-174/m^2
same,"Cytokine secretion (TNF-α, IL-1b, IL-1ra, IL-6, IL-8, sTNF-RI, sTNF-RII, IL-10, IL-2, IL-2sRa, IFN-γ)",[13]; single dose study,secretion profile consistent with that of lipid A derivatives
same,NK activity (in words),[5]; day 14,dramatic increase
same,cytotoxicity at 1 mg/kg,"[5]; Mus musculus, YAC-1, ip, read-out: NK % cytotoxicity",6.3 ± 1.7%
same,NK cell activity (in words),"[5]; normal mice, vs untreated controls",dramatic increase
same,NK % cytotoxicity,"[5]; normal mice, five mice",10.39 ± 1.0 %
same,NK (%),[6]; [15],7.5 ± 0.5%
same,CD4^+ (%),[6]; [15],27.0 ± 2.0%
same,CD8^+ (%),[6]; [15],9.3 ± 1.8%
same,"Percentages of CD4^+, CD8^+ and NK1.1 positive spleen cells (in words)",[6]; normal and tumour-bearing mice,increased the percentages
same,NK (%),[6]; normal mice,11.6 ± 2.1%
same,CD4^+ (%),[6]; normal mice,34.0 ± 2.5%
same,CD8^+ (%),[6]; normal mice,12.6 ± 1.5%
